What follows are compounds tested on human childhood brain tumor cell lines (PFSK-1) (assay: Growth inhibitory activity against PFSK-1 cells (WST-8, Cell Counting Kit-8)). Conditions: 3 days incubation with test compound, WST-8 OD 450/630 nm, read-out: IC50 (concentration inhibiting 50% of the cell growth).
Format: cell-based
Procedure: The growth inhibitory activity against human childhood brain tumor cell lines (PFSK-1) was measured with WST-8 reagent [2-(2-methoxy-4-nitrophenyl)-3-(4-nitrophenyl)-5-(2,4-disulfophenyl)-2H-tetrazolium monosodium salt, Cell Counting Kit-8™], according to the method described in Tominaga, H. et al., Anal. Commun., 1999, 36, 47-50. Briefly, PFSK-1 was seeded in 96-well microplate at 100 μL/well with Roswell Park Memorial Institute (RPMI) 1640 medium containing 10% fetal bovine serum (FBS), and the cells were incubated in the presence of 5% carbon dioxide (CO2) at 37° C. for 24 hours. 50 μL of each test compound diluted with the medium was added to each well, and then the cells were incubated further for 3 days. After the incubation, 15 μL of Cell Counting Kit-8™ was added to each well, and the cells were incubated for one and half hours. Then, optical density (OD) values at measurement wavelength 450 nm and reference wavelength 630 nm were measured and the difference thereof was calculated. From the calculated difference, the OD value difference (at measurement wavelength 450 nm and reference wavelength 630 nm) of the control well which includes no cell was subtracted to afford cell-growth activity in each well.
The cell growth inhibitory activity of each test compound was calculated by comparing the cell-growth activity with each test compound to the cell-growth activity without any test compound (control), and each IC50 (nM) which is the concentration inhibiting 50% of the cell growth was calculated.

| IC50 [nM] | Compound |
| --- | --- |
| 2.9 | CC1CC(=O)NN=C1c1ccc(OC[C@H]2C[C@@H]2CO)c(Cl)c1F (relative stereo) [Example 156, 6-(3-Chloro-2-fluoro-4-{[(1S*,2S*)-2-(hydroxymethyl)cyclopropyl]methoxy}phenyl)-5-methyl-4,5-dihydro-2H-pyridazin-3-one] |

Same assay, conditions: Homo sapiens, 72 h, 3 days incubation with test compound, WST-8 OD 450/630 nm, read-out: IC50 (concentration inhibiting 50% of the cell growth)

| IC50 [nM] | Compound |
| --- | --- |
| 3.1 | CC1CC(=O)NN=C1c1ccc(OC/C=C\CO)c(F)c1F (centres unmarked) [Example 93, 6-{2,3-Difluoro-4-[(Z)-4-hydroxy-2-butenyloxy]phenyl}-5-methyl-4,5-dihydro-2H-pyridazin-3-one] |
| 3 | CC1CC(=O)NN=C1c1cc(F)c(OCCCO)c(Br)c1 (centres unmarked) [Example 11, 6-[3-Bromo-5-fluoro-4-(3-hydroxypropoxy)phenyl]-5-methyl-4,5-dihydro-2H-pyridazin-3-one] |
| 2.9 | CC(O)COc1c(F)cc(C2=NNC(=O)CC2C)cc1Br (centres unmarked) [Example 50, 6-[3-Bromo-5-fluoro-4-(2-hydroxypropoxy)phenyl]-5-methyl-4,5-dihydro-2H-pyridazin-3-one] |
| 2 | CC1CC(=O)NN=C1c1cc(F)c(OCCCO)c(Cl)c1F (centres unmarked) [Example 140, 6-[3-chloro-2,5-difluoro-4-(3-hydroxypropoxy)phenyl]-5-methyl-4,5-dihydro-2H-pyridazin-3-one] |
| 4 | C=Cc1c(OCCCO)ccc(C2=NNC(=O)CC2C)c1F (centres unmarked) [Example 85, 6-[2-Fluoro-4-(3-hydroxypropoxy)-3-vinylphenyl]-5-methyl-4,5-dihydro-2H-pyridazin-3-one] |
| 3.2 | CC(O)COc1ccc(C2=NNC(=O)CC2C)c(O)c1Cl (centres unmarked) [Example 75, 6-[3-Chloro-2-hydroxy-4-(2-hydroxypropoxy)phenyl]-5-methyl-4,5-dihydro-2H-pyridazin-3-one] |
| 2.8 | Cc1cc(C2=NNC(=O)CC2C)cc(Cl)c1OC[C@H](C)O (stereo partly drawn) [Example 39, 6-{3-Chloro-4-[(2S)-2-hydroxypropoxy]-5-methylphenyl}-5-methyl-4,5-dihydro-2H-pyridazin-3-one] |
| 6.4 | CC1CC(=O)NN=C1c1ccc(OCCCO)c(C#N)c1F (centres unmarked) [Example 106, 2-fluoro-6-(3-hydroxypropoxy)-3-(4-methyl-6-oxo-4,5-dihydro-1H-pyridazin-3-yl)benzonitrile] |
| 2.6 | CC1CC(=O)NN=C1c1cc(F)c(OCC(C)(C)O)c(Cl)c1 (centres unmarked) [Example 25, 6-[3-Chloro-5-fluoro-4-(2-hydroxy-2-methylpropoxy)phenyl]-5-methyl-4,5-dihydro-2H-pyridazin-3-one] |
| 3 | C[C@@H]1CC(=O)NN=C1c1cc(F)c(OCC(C)(C)O)c(F)c1 [Example 117, (5R)-(−)-6-[3,5-Difluoro-4-(2-hydroxy-2-methylpropoxy)phenyl]-5-methyl-4,5-dihydro-2H-pyridazin-3-one] |
| 0.9 | CC(O)COc1ccc(C2=NNC(=O)CC2C)c(F)c1Br (centres unmarked) [Example 48, 6-[3-bromo-2-fluoro-4-(2-hydroxypropoxy)phenyl]-5-methyl-4,5-dihydro-2H-pyridazin-3-one] |
| 3.8 | CC1CC(=O)NN=C1c1cc(F)c(OCC(C)(C)CO)c(F)c1 (centres unmarked) [Example 6, 6-[3,5-Difluoro-4-(3-hydroxy-2,2-dimethylpropoxy)phenyl]-5-methyl-4,5-dihydro-2H-pyridazin-3-one] |
| 1.1 | Cc1cc(C2=NNC(=O)CC2C)cc(Cl)c1OCC(F)(F)CO (centres unmarked) [Example 113, 6-[3-chloro-4-(2,2-difluoro-3-hydroxypropoxy)-5-methylphenyl]-5-methyl-4,5-dihydro-2H-pyridazin-3-one] |
| 1.9 | Cc1cc(C2=NNC(=O)CC2C)c(F)c(Cl)c1OCCCO (centres unmarked) [Example 22, 6-[3-chloro-2-fluoro-4-(3-hydroxypropoxy)-5-methylphenyl]-5-methyl-4,5-dihydro-2H-pyridazin-3-one] |
| 8.8 | CC1CC(=O)NN=C1c1cc(F)c(OCC(O)(C(F)(F)F)C(F)(F)F)c(Cl)c1 (centres unmarked) [Example 37, 6-{3-Chloro-5-fluoro-4-[3,3,3-trifluoro-2-hydroxy-2-(trifluoromethyl)propoxy]phenyl}-5-methyl-4,5-dihydro-2H-pyridazin-3-one] |
| 6.3 | Cc1c(OCC(C)(C)O)ccc(C2=NNC(=O)CC2C)c1O (centres unmarked) [Example 28, 6-[2-Hydroxy-4-(2-hydroxy-2-methylpropoxy)-3-methylphenyl]-5-methyl-4,5-dihydro-2H-pyridazin-3-one] |
| 3 | Cc1cc(C2=NNC(=O)CC2C)c(F)c(C)c1OCC(C)(C)O (centres unmarked) [Example 132, 6-[2-Fluoro-4-(2-hydroxy-2-methylpropoxy)-3,5-dimethylphenyl]-5-methyl-4,5-dihydro-2H-pyridazin-3-one] |
| 3.4 | C=Cc1c(OCC(C)(C)O)ccc(C2=NNC(=O)CC2C)c1F (centres unmarked) [Example 133, 6-[2-Fluoro-4-(2-hydroxy-2-methylpropoxy)-3-vinylphenyl]-5-methyl-4,5-dihydro-2H-pyridazin-3-one] |
| 2.4 | Cc1c(OCC(F)(F)CO)ccc(C2=NNC(=O)C[C@H]2C)c1F [Example 120, (5R)-(−)-6-[4-(2,2-difluoro-3-hydroxypropoxy)-2-fluoro-3-methylphenyl]-5-methyl-4,5-dihydro-2H-pyridazin-3-one] |
| 7.2 | Cc1cc(C2=NNC(=O)CC2C)cc(F)c1OCC1(O)CC1 (centres unmarked) [Example 45, 6-{3-Fluoro-4-[(1-hydroxycyclopropyl)methoxy]-5-methylphenyl}-5-methyl-4,5-dihydro-2H-pyridazin-3-one] |
| 4.5 | C[C@@H]1CC(=O)NN=C1c1ccc(OC/C=C\CO)c(Cl)c1O [Example 183, (5R)-(−)-6-{3-chloro-2-hydroxy-4-[(Z)-4-hydroxy-2-butenyloxy]phenyl}-5-methyl-4,5-dihydro-2H-pyridazin-3-one] |
| 6.3 | Cc1cc(C2=NNC(=O)CC2C)c(F)c(C)c1OCC1(O)CC1 (centres unmarked) [Example 171, 6-{2-Fluoro-4-[(1-hydroxycyclopropyl)methoxy]-3,5-dimethylphenyl}-5-methyl-4,5-dihydro-2H-pyridazin-3-one] |
| 4.3 | Cc1cc(C2=NNC(=O)C[C@H]2C)cc(Cl)c1OCCO [Example 116, (5R)-(−)-6-[3-chloro-4-(2-hydroxyethoxy)-5-methylphenyl]-5-methyl-4,5-dihydro-2H-pyridazin-3-one] |
| 3.9 | Cc1cc(C2=NNC(=O)CC2C)cc(C)c1OCC(C)(C)CO (centres unmarked) [Example 71, 6-[4-(3-Hydroxy-2,2-dimethylpropoxy)-3,5-dimethylphenyl]-5-methyl-4,5-dihydro-2H-pyridazin-3-one] |
| 2.2 | CC1CC(=O)NN=C1c1ccc(OCC(C)(C)O)c(C(F)(F)F)c1F (centres unmarked) [Example 184, 6-[2-fluoro-4-(2-hydroxy-2-methylpropoxy)-3-(trifluromethyl)phenyl]-5-methyl-4,5-dihydro-2H-pyridazin-3-one] |

| Compound | IC50 [nM] |
| --- | --- |
| CC1CC(=O)NN=C1c1ccc(OCC(C)(C)CCO)c(Cl)c1O (centres unmarked) [Example 146, 6-[3-chloro-2-hydroxy-4-(4-hydroxy-2,2-dimethylbutoxy)phenyl]-5-methyl-4,5-dihydro-2H-pyridazin-3-one] | 6.8 |
| CC1CC(=O)NN=C1c1ccc(OCC(C)(C)CCO)c(F)c1F (centres unmarked) [Example 102, 6-[2,3-Difluoro-4-(4-hydroxy-2,2-dimethylbutoxy)phenyl]-5-methyl-4,5-dihydro-2H-pyridazin-3-one] | 3.4 |
| CCC(O)COc1c(Cl)cc(C2=NNC(=O)CC2C)cc1Cl (centres unmarked) [Example 63, 6-[3,5-Dichloro-4-(2-hydroxybutoxy)phenyl]-5-methyl-4,5-dihydro-2H-pyridazin-3-one] | 5 |

Reference: patent US10611731B2, “5-methyl-6-phenyl-4,5-dihydro-2H-pyridazin-3-one derivative” (OTSUKA PHARMACEUTICAL CO., LTD., priority 2016, dated 2020)
